According to patent US20200031778A1, “NOVEL 5-SUBSTITUTED IMIDAZOLYLMETHYL DERIVATIVES” (Bayer CropScience Aktiengesellschaft, priority 2016, published 2020):

Key:
[1] = tested on: Septoria tritici; experiment: Example IX-B: in vivo preventive test on Septoria tritici (leaf spot on wheat); details: Zymoseptoria tritici, 576 h; compounds of formula IX; 500 ppm of active ingredient; wheat plants, preventive spray; evaluated 24 days after inoculation; read-out: efficacy
Description: Example IX-B: In Vivo Preventive Test on Septoria Tritici (Leaf Spot on Wheat)
(§1) The active ingredients are made soluble and homogenized in a mixture of Dimethyl sulfoxide/Acetone/Tween® 80 and then diluted in water to the desired concentration.
(§2) The young plants of wheat are treated by spraying the active ingredient prepared as described above. Control plants are treated only with an aqueous solution of Acetone/Dimethyl sulfoxide/Tween® 80.
After 24 hours, the plants are contaminated by spraying the leaves with an aqueous suspension of Septoria tritici spores. The contaminated wheat plants are incubated for 72 hours at 18° C. and at 100% relative humidity and then for 21 days at 20° C. and at 90% relative humidity.
The test is evaluated 24 days after the inoculation. 0% means an efficacy which corresponds to that of the control plants while an efficacy of 100% means that no disease is observed.

[2] = tested on: Uromyces appendiculatus; experiment: Example IX-D: in vivo preventive test on Uromyces appendiculatus (bean rust); details: 264 h, compounds of formula IX, 500 ppm of active ingredient, bean plants, preventive spray, evaluated 11 days after inoculation, read-out: efficacy
Description: Example IX-D: In Vivo Preventive Test on Uromyces Appendiculatus (Bean Rust)
as §1
The young plants of bean are treated by spraying the active ingredient prepared as described above. Control plants are treated only with an aqueous solution of Acetone/Dimethyl sulfoxide/Tween® 80.
After 24 hours, the plants are contaminated by spraying the leaves with an aqueous suspension of Uromyces appendiculatus spores. The contaminated bean plants are incubated for 24 hours at 20° C. and at 100% relative humidity and then for 10 days at 20° C. and at 70-80% relative humidity.
(§3) The test is evaluated 11 days after the inoculation. 0% means an efficacy which corresponds to that of the control plants while an efficacy of 100% means that no disease is observed.
control plants while an efficacy of 100% means that no disease was observed.

[3] = tested on: Puccinia recondita; experiment: Example IX-A: in vivo preventive test on Puccinia recondita (brown rust on wheat); details: 264 h, compounds of formula IX, 500 ppm of active ingredient, wheat plants, preventive spray, evaluated 11 days after inoculation, read-out: efficacy
Description: Example IX-A: In Vivo Preventive Test on Puccinia Recondita (Brown Rust on Wheat)
as §1, §2
After 24 hours, the plants are contaminated by spraying the leaves with an aqueous suspension of Puccinia recondita spores. The contaminated wheat plants are incubated for 24 hours at 20° C. and at 100% relative humidity and then for 10 days at 20° C. and at 70-80% relative humidity.
as §3

[4] = Log P by HPLC on reversed phase columns (EEC directive 79/831 Annex V.A8; methods [a], [b], [c]); assay type: physicochemical; details: reversed phase HPLC column; method [a]: LC-UV, acidic range, 0.1% formic acid in water and acetonitrile as eluent (linear gradient from 10% to 95% acetonitrile)
How it was run: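 Log P derived from retention times, interpolated linearly between bracketing straight-chain alkan-2-ones (3–16 carbons) of known Log P. Eluents ran acetonitrile 10% to 95% against water with 0.1% formic acid ([a], acidic), 0.001 M ammonium acetate ([b], neutral) or 0.1% phosphoric acid ([c], acidic); UV read-out.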

[5] = tested on: Sphaerotheca fuliginea; experiment: Example IX-C: in vivo preventive test on Sphaerotheca fuliginea (powdery mildew on cucurbits); details: Podosphaera fuliginea, 360 h; compounds of formula IX; 500 ppm of active ingredient; gherkin plants, preventive spray; evaluated 15 days after inoculation; read-out: efficacy
Description: Example IX-C: In Vivo Preventive Test on Sphaerotheca Fuliginea (Powdery Mildew on Cucurbits)
as §1
The young plants of gherkin are treated by spraying the active ingredient prepared as described above. Control plants are treated only with an aqueous solution of Acetone/Dimethyl sulfoxide/Tween® 80.
After 24 hours, the plants are contaminated by spraying the leaves with an aqueous suspension of Sphaerotheca fuliginea spores. The contaminated gherkin plants are incubated for 72 hours at 18° C. and at 100% relative humidity and then for 12 days at 20° C. and at 70-80% relative humidity.
The test is evaluated 15 days after the inoculation. 0% means an efficacy which corresponds to that of the control plants while an efficacy of 100% means that no disease is observed.

Structure (SMILES)	pest or weed control at 500 ppm [1] [%]	pest or weed control at 500 ppm [2] [%]	pest or weed control at 500 ppm [3] [%]	chromatographic logP [4]	pest or weed control at 500 ppm [5] [%]
N#Cc1cncn1CC(=O)c1ccc(Oc2ccc(I)cc2)cc1F [IX-63]	90 to 100	90 to 100	90 to 100	3.48	90 to 100
O=C(Cn1cncc1F)c1ccc(Oc2ccc(Cl)cc2)cc1C(F)(F)F [IX-83]	90 to 100	90 to 100	80 to 89	2.88	80 to 89
O=C(Cn1cncc1Cl)c1ccc(Oc2ccc(Br)cc2)cc1Br [IX-37]	90 to 100	90 to 100	80 to 89	3.22	90 to 100
N#Cc1cncn1CC(=O)c1cnc(Oc2ccc(C(F)(F)F)cc2)cc1C(F)(F)F [IX-89]	90 to 100	90 to 100	80 to 89	3.42	90 to 100
O=C(Cn1cncc1F)c1ccc(Oc2ccc(Br)cc2)nc1C(F)(F)F [IX-86]	90 to 100	90 to 100	90 to 100	2.76	90 to 100
O=C(Cn1cncc1Cl)c1cnc(Oc2ccc(Cl)cc2)cc1Br [IX-50]	90 to 100	90 to 100	80 to 89	2.82	90 to 100
N#Cc1cncn1CC(=O)c1cnc(Oc2ccc(Cl)cc2)cc1Br [IX-92]	90 to 100	80 to 89	80 to 89	3.08	90 to 100
N#Cc1cncn1CC(=O)c1ccc(Oc2ccc(Cl)cc2)cc1Br [IX-61]	80 to 89	90 to 100	90 to 100	3.53	90 to 100
O=C(Cn1cncc1F)c1cnc(Oc2ccc(Cl)cc2)cc1C(F)(F)F [IX-104]	90 to 100	90 to 100	90 to 100	2.5	90 to 100
O=C(Cn1cncc1F)c1ccc(Oc2ccc(C(F)F)cc2)nc1C(F)(F)F [IX-134]	90 to 100	90 to 100	80 to 89	2.48	90 to 100
O=C(Cn1cncc1F)c1ccc(Oc2ccc(C(F)F)cc2)nc1Cl [IX-84]	90 to 100	90 to 100	80 to 89	2.12	90 to 100
O=C(Cn1cncc1Cl)c1ccc(Oc2ccc(Br)cn2)cc1Cl [IX-79]	90 to 100	90 to 100	80 to 89	2.59	90 to 100
N#Cc1cncn1CC(=O)c1ccc(Oc2ccc(I)cc2)cc1Br [IX-66]	90 to 100	90 to 100	90 to 100	3.8	90 to 100
N#Cc1cncn1CC(=O)c1ccc(Oc2ccc(I)cc2)cc1Cl [IX-68]	90 to 100	90 to 100	90 to 100	3.71	90 to 100
N#Cc1cncn1CC(=O)c1ccc(Oc2ccc(S(F)(F)(F)(F)F)cc2)nc1Cl [IX-74]	90 to 100	90 to 100	90 to 100	3.42	90 to 100
O=C(Cn1cncc1Cl)c1ccc(Oc2ccc(Br)cc2)cc1Cl [IX-15, 1-[4-(4-bromophenoxy)-2-chloro-phenyl]-2-(5-chloroimidazol-1-yl)ethanone]	90 to 100	90 to 100	90 to 100	3.13	90 to 100
O=C(Cn1cncc1C(F)(F)F)c1ccc(Oc2ccc(Cl)cc2)cc1Cl [IX-57]	90 to 100	80 to 89	90 to 100	4.03	90 to 100
N#Cc1cncn1CC(=O)c1ccc(Oc2ccc(Br)cn2)cc1Cl [IX-77]	90 to 100	90 to 100	90 to 100	2.94	90 to 100
N#Cc1cncn1CC(=O)c1cnc(Oc2ccc(Cl)cc2)cc1C(F)(F)F [IX-109]	90 to 100	90 to 100	70 to 79	3.17	90 to 100
O=C(Cn1cncc1Cl)c1ccc(Oc2ccc(F)cc2)cc1Cl [IX-08]	90 to 100	90 to 100	80 to 89	2.73	90 to 100
O=C(Cn1cncc1Cl)c1ccc(Oc2ccc(Cl)cn2)cc1Cl [IX-05]	80 to 89	80 to 89	70 to 79	2.53	90 to 100
O=C(Cn1cncc1Br)c1ccc(Oc2ccc(I)cc2)cc1Cl [IX-32]	90 to 100	90 to 100	80 to 89	3.35	90 to 100
N#Cc1cncn1CC(=O)c1ccc(Oc2ccc(Br)cc2)cc1Cl [IX-58, 1-[4-(4-bromophenoxy)-2-chloro-phenyl]-2-(5-cyanoimidazol-1-yl)ethanone]	90 to 100	90 to 100	90 to 100	3.55	90 to 100
O=C(Cn1cncc1Cl)c1cnc(Oc2ccc(Cl)cc2)cc1Cl [IX-23]	90 to 100	90 to 100	80 to 89	2.75	90 to 100
N#Cc1cncn1CC(=O)c1ccc(Oc2ccc(Br)cc2)cc1F [IX-62]	90 to 100	90 to 100	90 to 100	3.33	90 to 100
N#Cc1cncn1CC(=O)c1ccc(Oc2ccc(Cl)nc2)cc1Cl [IX-60]	90 to 100	90 to 100	80 to 89	2.62	90 to 100
O=C(Cn1cncc1F)c1cnc(Oc2ccc(Cl)cc2)cc1Br [IX-93]	90 to 100	90 to 100	80 to 89	2.39	90 to 100
N#Cc1cncn1CC(=O)c1ccc(Oc2ccc(C(F)(F)F)cc2)cc1C(F)(F)F [IX-69]	90 to 100	90 to 100	90 to 100	3.69	90 to 100
O=C(Cn1cncc1C(F)(F)F)c1ccc(Oc2ccc(Cl)cc2)cc1F [IX-80]	90 to 100	90 to 100	90 to 100	3.85	90 to 100
